Experiment [1] deals with T1, AsAChE-A.
T1 construct: gene ace 2; native, soluble, from worker heads
As to the kind of experiment: LC-MS/MS quantification of choline, HILIC. Format: biochemical, Atta sexdens. Particulars: free enzyme; 15 mM ammonium acetate, pH 5.0 as printed; 5 min. The source says:
LC-MS/MS quantification of choline, HILIC on AsAChE-A

For experiment [2], the system named is T1, AsAChE-A. As to the kind of experiment: Ellman assay, […] nm, Lineweaver-Burk. Format: biochemical, Atta sexdens. Particulars: free enzyme; Tris-HCl, optimal pH (9.5) and temperature (30 or 50 °C, which not told); iodide salt; partially purified native enzyme.
In another experiment the target is T2, AsAChE-B (Atta sexdens, UniProt A0A2R2V0F5).
T2 construct: native, soluble, from worker heads
As to the kind of experiment: on-flow LC-MS/MS of choline with immobilized enzyme capillary reactor. The conditions noted are these: read-out: % inhibition at 0.1 mM. The experiment is classed as biochemical.

These results are taken from paper PMC6633970, “Acetylcholinesterases from Leaf-Cutting ant Atta sexdens: Purification, Characterization, and Capillary Reactors for On-Flow Assays” (Enzyme Research, 2019).

SMILES strings stand for the structures.

Take `CC(=O)OCC[N+](C)(C)C` [ACh, acetylcholine]: in the experiment with AsAChE-A [1], the Km stood at 40.7 ± 12.5 µM.

For the compound `CC(=O)SCC[N+](C)(C)C` [ATCh, acetylthiocholine], the Km in the experiment with AsAChE-A [2] was determined as 39.1 ± 2.3 µM.

On to `Nc1c2c(nc3ccccc13)CCCC2` [tacrine], for which the inhibition at 100 µM at AsAChE-B was 16%.

A word on the Km: it is the substrate concentration at which the rate is half of its maximum. A word on the inhibition: it is the change of the read-out against control, counted positive when it falls.
